Data from patent US20190151625A1, “DRUG DELIVERY APPARATUS AND METHOD” (INNOVENTIONS LTD., priority 2016, published 2019).

Experiment: Release of lidocaine dissolved in oil through the silicone balloon wall of device 20
Format: physicochemical
Experimental: Experiments were performed using Lidocaine dissolved in oily substances using two different expansion volumes (one with 10 ml, the other with 16 ml) of the balloon of the device 20.
A. The balloon was expanded by injection of 10 ml of the oily solution into the balloon. A series of 4 experiments using lidocaine dissolved in oil was performed. The results were as follows: • 1. After 28 days—436 mg out of 500 mg was released. • 2. After 29 days—all the 500 mg was released (out of 500 mg). • 3. After 22 days—all the 500 mg was released (out of 500 mg). • 4. After 63 days—all the 1000 mg was released (out of 1000 mg).
B. The balloon was expanded by injection of 16 ml of the oily solution into the balloon. 2 groups and a series of 3 experiments using lidocaine dissolved in oil were performed. The results were as follows: • 1. After 21 days: —all the 500 mg was released (out of 500 mg) • […] was released, out of 1000 mg • 1086 mg was released, out of […] • 2. After 84 days—all the 500 mg was released (out of 500 mg) • all the 1000 mg was released (out of 1000 mg) • all the 1500 mg was released (out of 1500 mg)

## CCN(CC)CC(=O)Nc1c(C)cccc1C [Lidocaine]
Lidocaine dissolved in oily substances, balloon expansion volumes 10 ml and 16 ml
  release through the silicone balloon wall: released in large quantities
Balloon expanded with 10 ml oily solution, experiment 1, after 28 days, out of 500 mg
  amount released: 436 mg
Balloon expanded with 10 ml oily solution, experiment 2, after 29 days, out of 500 mg
  amount released: 500 mg
Balloon expanded with 10 ml oily solution, experiment 3, after 22 days, out of 500 mg
  amount released: 500 mg
Balloon expanded with 10 ml oily solution, experiment 4, after 63 days, out of 1000 mg
  amount released: 1000 mg
Balloon expanded with 16 ml oily solution, after 21 days, out of 500 mg
  amount released: 500 mg
Balloon expanded with 16 ml oily solution, after 21 days, out of 1500 g
  amount released: 1086 mg
Balloon expanded with 16 ml oily solution, after 84 days, out of 500 mg
  amount released: 500 mg
Balloon expanded with 16 ml oily solution, after 84 days, out of 1000 mg
  amount released: 1000 mg
Balloon expanded with 16 ml oily solution, after 84 days, out of 1500 mg
  amount released: 1500 mg
